Consider 48 molecules from the Deep4Chem optical property database.

This series is described as follows: photoluminescence quantum yield (fraction); solvent given as SMILES.

Consider `C(/C=C/c1ccc(N(c2ccccc2)c2ccccc2)cc1)=C\c1ccncc1`, for which the photoluminescence quantum yield was determined as 0.3 (in C1COCCO1), 0.16 (in CC#N), 0.4 (in CCCCCCC) and 0.02 (in CO).
`COc1ccc(C2=C/C(=C\c3ccc(C#N)cc3)C(=O)O2)cc1OC`: the photoluminescence quantum yield (in C1COCCO1) is 0.45.
Regarding `CC(=O)c1ccc(-c2nc3ccc(N(C)C)c(Cl)c3s2)cc1`, the photoluminescence quantum yield is, setting by setting: (in C1CCCCC1) 0.5; (in CC#N) 0.7; (in CO) 0.054; (in ClC(Cl)Cl) 0.9.
As to `Clc1ccc(/C=C(\c2ccccc2)c2nc3ccccc3s2)cc1`, the photoluminescence quantum yield is, setting by setting: (in C1CCCCC1) 0.001; (in CO) 0.001.
`COc1cc2c(cc1-c1ccc([N+](=O)[O-])cc1)Cc1c3c(c4c(c1-2)-c1cc(OC)c(-c2ccc([N+](=O)[O-])cc2)cc1C4)C(=O)N(CCC(C)C)C3=O` displayed a photoluminescence quantum yield (in C1CCOC1) of 0.11.
On to `CCOC(=O)c1cc(C(=O)OCC)c2cccc(OCc3ccccc3)c2n1`, for which the photoluminescence quantum yield (in CCO) was found to be 0.2.
Under “in CCO”, `O=C(Cc1ccccc1)OCc1ccc2c3cccc4cccc(c5cccc1c52)c43` registered a photoluminescence quantum yield of 0.92.
Take `CN(C)c1ccc(/C=C/C=C/c2ccc(C#N)cc2)cc1`: the photoluminescence quantum yield was 0.098 (in C1CCOC1); 0.223 (in CC#N); 0.125 (in CCCC#N); 0.059 (in CCCCCC); 0.068 (in CCCCOCCCC); 0.187 (in CCO). The molecule further gave a photoluminescence quantum yield (in CCOCC) of 0.085.
In turn, `COc1cc2oc(=O)c3c4ccc(C=O)cc4c4ccc5cccc6c(c1)c2c3c4c56` showed a photoluminescence quantum yield (in C1CCOC1) of 0.459.
For `CCCCCCCCc1ccc(-c2c3cc(-c4cc(CCCCCCCC)c(-c5ccc(-c6sc(/C=C7\SC(=S)N(CC)C7=O)cc6CCCCCCCC)s5)s4)sc3c(-c3ccc(CCCCCCCC)s3)c3cc(-c4cc(CCCCCCCC)c(-c5ccc(-c6sc(/C=C7\SC(=S)N(CC)C7=O)cc6CCCCCCCC)s5)s4)sc23)s1`, the photoluminescence quantum yield amounted to 0.048 (in C1CCOC1) and 0.027 (in ClC(Cl)Cl).
For the molecule `COc1nc(Cl)nc(Nc2ccc3cc4ccccc4cc3c2)n1`, the photoluminescence quantum yield (in C1COCCO1) turned out to be 0.25, the photoluminescence quantum yield (in CC#N) came to 0.03, the photoluminescence quantum yield (in CCCCOCCCC) turned out to be 0.25 and the photoluminescence quantum yield (in CCOC(C)=O) turned out to be 0.12.
As for `COc1ccc(-n2cccc2)cc1`, the photoluminescence quantum yield is 0.33 (in CC#N) and 0.26 (in CCCCCC).
`CC1=[N+]2C(=C(Oc3ccc4c(c3)CC[C@@H]3[C@@H]4CC[C@]4(C)C(=O)CC[C@@H]34)c3ccc(C)n3[B-]2(F)F)C=C1c1cc2n(c1)[B-](F)(F)[N+]1=CC=CC1=C2c1c(C)cc(C)cc1C`: the photoluminescence quantum yield was found to be 0.52 (in C1CCCCC1) and 0.12 (in CCOC(C)=O).
Turning to `CC(=O)Nc1cccc2c1C#Cc1c(cccc1C(=O)N(C)C)OCCCO2`, the photoluminescence quantum yield reads like this: (in CC#N) 0.005; (in ClCCl) 0.012.
With `CCCCN1c2ccc(/C=C/c3cc(=O)oc4cc(C)ccc34)cc2Sc2cc(/C=C/c3cc(=O)oc4cc(C)ccc34)ccc21`, where the note is “in ClC(Cl)Cl”, the photoluminescence quantum yield is 0.83.
Where the note is “in CO”, `Cc1cc(C)c(B(c2cc(-c3ccccc3)sc2-c2sc(-c3ccccc3)cc2P(=O)(c2ccccc2)c2ccccc2)c2c(C)cc(C)cc2C)c(C)c1` registered a photoluminescence quantum yield of 0.75.
`CCCCCCOc1ccc2c(c1)-c1cc3c(cc1[Si]2(C)C)-c1ccccc1[Si]3(C)C` yielded a photoluminescence quantum yield (in ClCCl) of 0.51.
Regarding `c1ccc2cc(-c3c4ccccc4c(-c4nccc5ccccc45)c4ccccc34)ccc2c1`, the photoluminescence quantum yield (in ClCCl) amounted to 0.57.
`O=C(O)c1c2ccccc2c(C(=O)O)c2ccccc12`: the photoluminescence quantum yield by setting is: (in C1CCOC1) 0.66; (in CN(C)C=O) 0.4.
`c1ccc2c3c(ccc2c1)-c1c2ccccc2cc2cccc-3c12` yielded a photoluminescence quantum yield (in CCCCCCC) of 0.00088.
As for `CCN(CC)/C(C)=N\c1ccc2c3c(cccc13)C(=O)c1ccccc1-2`, the photoluminescence quantum yield reads like this: (in C1CCOC1) 0.17; (in CCCCCC) 0.21; (in CCO) 0.14; (in CCOC(C)=O) 0.22; (in CN(C)C=O) 0.15; (in CO) 0.14. Further, the photoluminescence quantum yield came to 0.56 (in Cc1ccccc1); 0.31 (in ClC(Cl)(Cl)Cl); 0.49 (in ClC(Cl)Cl); 0.5 (in ClCCl); 0.55 (in c1ccccc1).
In turn, `CC(C)[Si]1(C(C)C)c2cc(C#N)ccc2-c2ccc(N(c3ccccc3)c3ccccc3)cc21` displayed a photoluminescence quantum yield (in C1CCCCC1) of 0.64; a photoluminescence quantum yield (in CC#N) of 0.67; a photoluminescence quantum yield (in CCO) of 0.72; a photoluminescence quantum yield (in CCOCC) of 0.74; a photoluminescence quantum yield (in CS(C)=O) of 0.81; a photoluminescence quantum yield (in ClCCl) of 0.8. Under “in c1ccccc1”, this molecule came in with a photoluminescence quantum yield of 0.75.
`CCCCCCCCCCOc1cc(OCCCCCCCCCC)cc(C2=C3C(C)=CC(/C=C/c4ccc(OC)cc4)=[N+]3[B-](F)(F)n3c(/C=C/c4ccc(OC)cc4)cc(C)c32)c1` yielded a photoluminescence quantum yield (in ClC(Cl)Cl) of 0.37.
For `c1ccc2c(c1)-c1ccccc1C21c2ccccc2-c2c1c1c3ccccc3ccc1c1ccccc21`, the photoluminescence quantum yield (in Cc1ccccc1) is 0.61.
In turn, `O=C1NC(=O)C(c2c[nH]c3ccccc23)=C1c1c[nH]c2ccccc12` returned a photoluminescence quantum yield (in C1CCOC1) of 0.24; a photoluminescence quantum yield (in CC#N) of 0.1; a photoluminescence quantum yield (in CC(C)OC(C)C) of 0.28; a photoluminescence quantum yield (in CCCCOCCCC) of 0.22; a photoluminescence quantum yield (in CCO) of 0.003; a photoluminescence quantum yield (in CCOC(C)=O) of 0.21. This molecule came in with a photoluminescence quantum yield (in CN(C)C=O) of 0.13, a photoluminescence quantum yield (in Cc1ccccc1) of 0.28 and a photoluminescence quantum yield (in ClCCl) of 0.21.
Turning to `CN(C)c1ccc(C#Cc2cc(C#Cc3ccc(C(F)(F)F)cc3)c3ccc4c(C#Cc5ccc(C(F)(F)F)cc5)cc(C#Cc5ccc(N(C)C)cc5)c5ccc2c3c54)cc1`, the photoluminescence quantum yield (in ClCCl) is 0.42.
With `CC1=CC(C)=[N+]2C1=C(c1ccccc1)c1c(C)cc(/C=C/c3ccccc3)n1[B-]2(F)F`, the photoluminescence quantum yield (in CC#N) came out at 0.7.
As for `CCOC(=O)C1=CN(c2ccccc2)C=C(C(=O)OCC)C1c1ccccc1`, the photoluminescence quantum yield reads like this: (in C1CCOC1) 0.51; (in CO) 0.44.
The molecule `F[B-]1(F)n2c(-c3ccccc3)c3ccc4ccccc4c3c2N=C2c3c(ccc4ccccc34)C(c3ccccc3)=[N+]21` yielded a photoluminescence quantum yield (in ClCCl) of 0.14.
In the case of `COc1ccc(C2=[N+]3C(=Nc4c(-c5cc(OC)c(OC)c(OC)c5)c(-c5ccc(C(C)(C)C)cc5)c(-c5ccc(OC)cc5)n4[B-]3(F)F)C(c3cc(OC)c(OC)c(OC)c3)=C2c2ccc(C(C)(C)C)cc2)cc1`, the photoluminescence quantum yield (in Cc1ccccc1) came to 0.04.
Consider `CCN(CC)c1ccc2c(C#N)c(/C=C(\C#N)c3nc4ccccc4o3)c(=O)oc2c1`, for which the photoluminescence quantum yield (in C1COCCO1) stood at 0.0328; the photoluminescence quantum yield (in CC#N) is 0.0658; the photoluminescence quantum yield (in CCO) was 0.0144; the photoluminescence quantum yield (in CCOC(C)=O) stood at 0.0434; the photoluminescence quantum yield (in CO) was found to be 0.0121; the photoluminescence quantum yield (in Cc1ccccc1) stood at 0.101. The molecule further displayed a photoluminescence quantum yield (in ClCCl) of 0.105.
For `C[Si]1(C)O[Si](C)(C)c2cc3cc4c(cc3cc21)C(=O)c1cc2cc3c(cc2cc1C4=O)[Si](C)(C)O[Si]3(C)C`, the photoluminescence quantum yield (in ClC(Cl)Cl) came to 0.01.
Molecule `COC(=O)C1=C(C(=O)OC)C2(c3ccccc3-c3ccccc32)[C@@H](c2ccc([N+](=O)[O-])cc2)C=C2c3cc(OC)c(OC)cc3CCN21` yielded a photoluminescence quantum yield (in ClCCl) of 0.00065.
Under “in ClCCl”, `COc1cc(OC)c2cc(C#N)c(=N)oc2c1` came in with a photoluminescence quantum yield of 0.047.
Same read-out and setting: next, `F[B-]1(F)OC(C#Cc2ccccc2)=CC(c2ccccc2)=[O+]1`: 0.43.
Still for that read-out and setting: next, `N#Cc1ccc(C2=Cc3cc4ccccc4cc3P2(=O)c2ccccc2)cc1` (stereo not given): 0.54.
Same read-out and setting: next, `COc1ccc(-c2ccc(/C=C/c3ccncn3)cc2)cc1`: 0.14.
For the setting “in Cc1ccccc1”, `CCCCCCCCn1c2cc(/C=C/c3ccc(N(c4ccccc4)c4ccccc4)cc3)ccc2c2cc3c(cc21)c1ccc(/C=C/c2ccc(N(c4ccccc4)c4ccccc4)cc2)cc1n3CCCCCCCC` showed a photoluminescence quantum yield of 0.62.
The molecule `CC/[NH+]=c1\cc2oc3cc(NCCC(=O)O)c4ccccc4c3nc-2cc1C` registered a photoluminescence quantum yield (in CCO) of 0.44 and a photoluminescence quantum yield (in O) of 0.28.
Molecule `CCn1c2ccccc2c2cc(/C=C/c3cc(/C=C/c4ccc5c(c4)c4ccccc4n5CC)[n+](CCCS(=O)(=O)[O-])c(/C=C/c4ccc5c(c4)c4ccccc4n5CC)c3)ccc21` registered a photoluminescence quantum yield (in C1CCOC1) of 0.12, a photoluminescence quantum yield (in CC#N) of 0.05, a photoluminescence quantum yield (in CC(C)=O) of 0.05 and a photoluminescence quantum yield (in Cc1ccccc1) of 0.09.
For `N#Cc1cc(-n2c3ccccc3c3cccnc32)c(-n2c3ccccc3c3cccnc32)cc1C#N`, the photoluminescence quantum yield (in c1cc(-n2c3ccccc3c3ccccc32)cc(-n2c3ccccc3c3ccccc32)c1) turned out to be 0.37.
As for `C[Si](C)(c1cccc2ccccc12)[Si](C)(C)[Si](C)(C)[Si](C)(C)c1c2ccccc2cc2ccccc12`, the photoluminescence quantum yield is 0.65 (in C1CCCCC1) and 0.08 (in CC#N).
Consider `Fc1ccccc1-c1nc2sc3ccccc3c2s1`, for which, where the note is “in CS(C)=O”, the photoluminescence quantum yield was 0.64.
`Nc1ccc2nc3c4ccccc4c(=[NH2+])cc-3oc2c1`: where the note is “in CCO”, the photoluminescence quantum yield came out at 0.582.
`COc1ccc(OC)c(C(C)=O)c1` yielded a photoluminescence quantum yield (in CO) of 0.1.
Where the note is “in ClCCl”, `CN(C)c1cc(-c2ccc(C#Cc3ccccc3)cc2)cc2ccccc12` came in with a photoluminescence quantum yield of 0.7.
Still for that read-out and setting: for `COc1cc2c(cc1OC)C1=C[C@H](c3ccccc3)C3(C(C#N)=C(C#N)N1CC2)c1ccccc1-c1ccccc13` the value was 0.00173.
Regarding `C#Cc1ccc(-c2c3nc(c(-c4ccc(C#C)cc4)c4ccc([nH]4)c(-c4cc(C(C)(C)C)cc(C(C)(C)C)c4)c4cc(c(-c5cc(C(C)(C)C)cc(C(C)(C)C)c5)c5ccc2[nH]5)C=N4)C=C3)cc1`, the photoluminescence quantum yield (in ClCCl) worked out at 0.0269.
